Assay results reported in patent US11976083B2, “Inhibitors of peptidylarginine deiminases” (Gilead Sciences, Inc., priority 2020, dated 2024).

Biological target: T1, human PAD4 (Homo sapiens, UniProt Q9UM07)
T1 construct: human PAD4 (NM_012387), A2-P663, was PCR amplified; His-SUMO (N, cleaved yes); made in house; host or cells: E. coli BL21(DE3)
Assay: In vitro PAD4 BAEE biochemical assay
Conditions: BAEE substrate 3 mM, 5 nM PAD4, 2 mM calcium chloride; geometric mean of multiple experiments
How it was run: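 Recombinant PAD4 (5 nM final) with 2 mM CaCl2 was preincubated with compound for 30 min at 25 °C in MOPS pH 7.6 buffer with DTT, then reacted with 3 mM BAEE for 2 h at 25 °C. Released ammonia was detected fluorimetrically with o-phthalaldehyde/DTT; IC50 from four-parameter fit, geometric mean of experiments.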

T1 sequence (Q9UM07 2-663): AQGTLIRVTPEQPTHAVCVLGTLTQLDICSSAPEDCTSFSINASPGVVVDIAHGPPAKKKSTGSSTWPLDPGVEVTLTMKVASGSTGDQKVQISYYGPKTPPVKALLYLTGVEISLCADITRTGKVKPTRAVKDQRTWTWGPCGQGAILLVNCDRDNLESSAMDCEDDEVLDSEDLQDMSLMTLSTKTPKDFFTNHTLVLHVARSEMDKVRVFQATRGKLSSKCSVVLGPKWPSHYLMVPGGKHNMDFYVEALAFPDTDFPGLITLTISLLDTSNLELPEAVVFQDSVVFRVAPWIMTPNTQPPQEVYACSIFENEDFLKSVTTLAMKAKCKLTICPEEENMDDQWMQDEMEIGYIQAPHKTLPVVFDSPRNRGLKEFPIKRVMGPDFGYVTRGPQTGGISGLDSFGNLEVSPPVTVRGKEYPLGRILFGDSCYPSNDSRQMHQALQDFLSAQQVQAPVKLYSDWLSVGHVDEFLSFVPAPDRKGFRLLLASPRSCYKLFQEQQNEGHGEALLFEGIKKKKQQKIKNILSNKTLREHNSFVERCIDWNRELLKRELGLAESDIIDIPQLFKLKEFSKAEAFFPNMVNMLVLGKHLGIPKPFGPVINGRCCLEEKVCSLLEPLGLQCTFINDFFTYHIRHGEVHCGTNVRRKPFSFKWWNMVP

Row | SMILES | IC50 [nM]
1 | COc1cc(C(=O)N2CC[C@@H](OC)[C@@H](N)C2)cc2nc(-c3cc4ccc5nc4n3CCCCCc3ccnc(C)c3C(=O)N[C@@H]5C)n(C)c12 [Example 697, (2~{R})-17-[5-[(3~{S}, 4~{R})-3-amino-4-methoxy-piperidine-1-carbonyl]-7-methoxy-1-methyl-benzimidazol-2-yl]-2,6-dimethyl-3,7,16,22-tetrazatetracyclo[14.5.2.0^ {5,10}.0^{19,23}] tricosa-1(22),5(10),6,8,17, 19(23),20-heptaen-4-one] | 74
2 | CO[C@@H]1CCN(C(=O)c2cc(F)c3c(c2)nc(-c2cc4ccc5nc4n2CCCCCc2ccnc(C)c2C(=O)N[C@@H]5C)n3C2CC2)C[C@@H]1N [Example 698, (2~{R})-17-[5-[(3~{S),4~ {R})-3-amino-4-methoxy-piperidine-1-carbonyl]-1-cyclopropyl-7-fluoro-benzimidazol-2-yl]-2,6-dimethyl-3,7,16,22-tetrazatetracyclo[14.5.2.0^ {5,10).0^{19,23}]tricosa-1(22),5(10),6,8,17,19(23),20-heptaen-4-one] | 68
3 | COc1cc(C(=O)N2CC[C@@H](OC)[C@@H](N)C2)cc2nc(-c3cc4ccc5nc4n3CCCCCCC[C@@H](C(F)(F)F)N[C@@H]5C)n(C)c12 [Example 699, [(3~{S},4~{R})-3-amino-4-methoxy-1-piperidyl]-[7-methoxy-1-methyl-2-[(9~{S},11~ {R})-11-methyl-9-(trifluoromethyl)-1,10,19-triazatricyclo[10.5.2.0^ {15,18}]nonadeca-12(19),13,15(18),16-tetraen-17-yl]benzimidazol-5-yl] methanone] | 640
4 | CO[C@@H]1CCN(C(=O)c2cc(F)c3c(c2)nc(-c2cc4ccc5nc4n2CC(F)(F)CCC[C@]2(F)C[C@H]2C(=O)N[C@@H]5C)n3C2CC2)C[C@@H]1N [Example 700, (2~{R},5~{S},7~{S})-14-[5-[(3~{S},4~{R})-3-amino-4-methoxy-piperidine-1-carbonyl]-1-cyclopropyl-7-fluoro-benzimidazol-2-yl]-7,11,11-trifluoro-2-methyl-3,13,19-triazatetracyclo[11.5.2.0^ {5,7}.0^{16,20}]icosa-1(19),14,16(20),17-tetraen-4-one] | 22
5 | C[C@@H]1[C@H](N)CCCN1C(=O)c1cc(F)c2c(c1)nc(-c1cc3ccc4nc3n1CC(F)(F)CCC[C@]1(F)C[C@H]1C(=O)N[C@@H]4C)n2C1CC1 [Example 701, (2~{R},5~{S},7~{S})-14-[5-[(2~{R},3~{R})-3-amino-2-methyl-piperidine-1-carbonyl]-1-cyclopropyl-7-fluoro-benzimidazol-2-yl]-7,11,11-trifluoro-2-methyl-3,13,19-triazatetracyclo[11.5.2.0^ {5,7}.0^{16,20}]icosa-1(19),14,16(20),17-tetraen-4-one] | 5
6 | COc1cc(C(=O)N2CC[C@@H](OC)[C@@H](N)C2)cc2nc(-c3cc4ccc5nc4n3CC(F)(F)CCC[C@]3(F)C[C@H]3C(=O)N[C@@H]5C)n(C)c12 [Example 702, (2~{R},5~{S},7~{S})-14-[5-[(3~{S},4~{R})-3-amino-4-methoxy-piperidine-1-carbonyl]-7-methoxy-1-methyl-benzimidazol-2-yl]-7,11,11-trifluoro-2-methyl-3,13,19-triazatetracyclo[11.5.2.0^ {5,7}.0^{16,20}]icosa-1(19),14,16(20),17-tetraen-4-one] | 21
7 | COc1cc(C(=O)N2CCC[C@@H](N)[C@H]2C)cc2nc(-c3cc4ccc5nc4n3CC(F)(F)CCC[C@]3(F)C[C@H]3C(=O)N[C@@H]5C)n(C)c12 [Example 703, (2~{R},5~{S},7~{S})-14-[5-[(2~{R},3~{R})-3-amino-2-methyl-piperidine-1-carbonyl]-7-methoxy-1-methyl-benzimidazol-2-yl]-7,11,11-trifluoro-2-methyl-3,13,19-triazatetracyclo[11.5.2.0^ {5,7}.0^{16,20}]icosa-1(19), 14,16(20),17-tetraen-4-one] | 11
8 | CO[C@@H]1CCN(C(=O)c2cc(F)c3c(c2)nc(-c2cc4ccc5nc4n2CCCCC[C@]2(F)C[C@H]2C(=O)N[C@@H]5C)n3C2CC2)C[C@@H]1N [Example 704, (2~{R},5~{S},7~{S})-14-[5-[(3~{S},4~{R})-3-amino-4-methoxy-piperidine-1-carbonyl]-1-cyclopropyl-7-fluoro-benzimidazol-2-yl]-7-fluoro-2-methyl-3,13,19-triazatetracyclo[11.5.2.0^ {5,7}.0^{16,20}]icosa-1(19), 14,16(20),17-tetraen-4-one] | 31
9 | C[C@@H]1[C@H](N)CCCN1C(=O)c1cc(F)c2c(c1)nc(-c1cc3ccc4nc3n1CCCCC[C@]1(F)C[C@H]1C(=O)N[C@@H]4C)n2C1CC1 [Example 705, (2~{R},5~{S},7~{S})-14-[5-[(2~{R},3~{R})-3-amino-2-methyl-piperidine-1-carbonyl]-1-cyclopropyl-7-fluoro-benzimidazol-2-yl]-7-fluoro-2-methyl-3,13,19-triazatetracyclo[11.5.2.0^ {5,7}.0^{16,20}]icosa-1(19),14,16(20),17-tetraen-4-one] | 20
10 | COc1cc(C(=O)N2CCC[C@@H](N)[C@H]2C)cc2nc(-c3cc4ccc5nc4n3CCCCC[C@]3(F)C[C@H]3C(=O)N[C@@H]5C)n(C)c12 [Example 706, (2~{R},5~{S},7~{S})-14-[5-[(2~{R},3~{R})-3-amino-2-methyl-piperidine-1-carbonyl]-7-methoxy-1-methyl-benzimidazol-2-yl]-7-fluoro-2-methyl-3,13,19-triazatetracyclo[11.5.2.0^ {5,7}.0^{16,20}]icosa-1(19),14,16(20),17-tetraen-4-one] | 19
11 | COc1cc(C(=O)N2C[C@H]3OC[C@@H]2[C@@H]3N)cc2nc(-c3cc4ccc5nc4n3CC(F)(F)CCC[C@@H]3C[C@H]3C(=O)N[C@@H]5C)n(C)c12 [Example 707, (2~{R},5~{R},7~{R})-14-[5-[(1~{R},4~{S},7~ {S})-7-amino-2-oxa-5-azabicyclo[2.2.1]heptane-5-carbonyl]-7-methoxy-1-methyl-benzimidazol-2-yl]-11,11-difluoro-2-methyl-3,13,19-triazatetracyclo[11.5.2.0^ {5,7}.0^{16,20}]icosa-1(19),14,16(20),17-tetraen-4-one] | 21
12 | COc1cc(C(=O)N2C[C@H]3OC[C@@H]2[C@@H]3N)cc2nc(-c3cc4ccc5nc4n3CCCCCCC(C)(C)C(=O)N[C@@H]5C)n(C)c12 [Example 708, (11~{R})-17-[5-[(1~{R},4~{S), 7~{S})-7-amino-2-oxa-5-azabicyclo[2.2.1]heptane-5-carbonyl]-7-methoxy-1-methyl-benzimidazol-2-yl]-8,8,11-trimethyl-1,10,19-triazatricyclo[10.5.2.0^ {15,18}]nonadeca-12(19),13,15(18),16-tetraen-9-one] | 91
13 | C[C@H]1NC(=O)c2ccc(Cl)nc2CC[C@@H]2C[C@@H]2Cn2c(-c3nc4cc(C(=O)N5C[C@H](N)[C@@H]6CC[C@H]5C6)cc(F)c4n3C3CC3)cc3ccc1nc32 [Example 709, (3~{S),5~{R},16~{R})-22-[5-[(1~{S},4~{R},5~ {R})-4-amino-2-azabicyclo[3.2.1]octane-2-carbonyl]-1-cyclopropyl-7-fluoro-benzimidazol-2-yl]-10-chloro-16-methyl-1,9,15,24-tetrazapentacyclo[15.5.2.0^ {3,5}.0^{8,13}.0^{20,23}] tetracosa-8(13),9,11, 17(24),18,20(23),21-heptaen-14-one] | 25
14 | C[C@H]1NC(=O)c2ccc(Cl)nc2CC[C@H]2C[C@H]2Cn2c(-c3nc4cc(C(=O)N5C[C@H](N)[C@@H]6CC[C@H]5C6)cc(F)c4n3C3CC3)cc3ccc1nc32 [Example 710, (3~{R),5~{S},16~{R})-22-[5-[(1~{S},4~{R},5~{R})-4-amino-2-azabicyclo[3.2.1]octane-2-carbonyl]-1-cyclopropyl-7-fluoro-benzimidazol-2-yl]-10-chloro-16-methyl-1,9,15,24-tetrazapentacyclo[15.5.2.0^ {3,5}.0^{8,13}.0^{20,23}] tetracosa-8(13),9,11,17(24), 18,20(23),21-heptaen-14-one] | 18
15 | COc1cc(C(=O)N2C[C@H](N)[C@@H]3CC[C@H]2C3)cc2nc(-c3cc4ccc5nc4n3CCCCC[C@@]3(F)C[C@H]3C(=O)N[C@@H]5C)n(C)c12 [Example 711, (2~{R},5~{S},7~{R})-14-[5-[(1~{S),4~{R},5~{R})-4-amino-2-azabicyclo[3.2.1]octane-2-carbonyl]-7-methoxy-1-methyl-benzimidazol-2-yl]-7-fluoro-2-methyl-3,13,19-triazatetracyclo[11.5.2.0^ {5,7}.0^{16,20}]icosa-1(19), 14,16(20),17-tetraen-4-one] | 19
16 | C[C@H]1NC(=O)[C@@H]2C[C@]2(F)CCCCCn2c(-c3nc4cc(C(=O)N5C[C@H](N)[C@@H]6CC[C@H]5C6)cc(F)c4n3C3CC3)cc3ccc1nc32 [Example 712, (2~{R},5~{S},7~{R})-14-[5-[(1~{S},4~{R},5~ {R})-4-amino-2-azabicyclo [3.2.1]octane-2-carbonyl]-1-cyclopropyl-7-fluoro-benzimidazol-2-yl]-7-fluoro-2-methyl-3,13,19-triazatetracyclo[11.5.2.0^ {5,7}.0^{16,20}] icosa-1(19),14,16(20), 17-tetraen-4-one] | 24
17 | COc1cc(C(=O)N2C[C@H](N)[C@@H]3CC[C@H]2C3)cc2nc(-c3cc4ccc5nc4n3CCCCCc3nc(Cl)ccc3C(=O)N[C@@H]5C)n(C)c12 [Example 713, (2~{R})-17-[5-[(1~{S}, 4~{R},5~{R})-4-amino-2-azabicyclo[3.2.1]octane-2-carbonyl]-7-methoxy-1-methyl-benzimidazol-2-yl]-8-chloro-2-methyl-3,9,16,22-tetrazatetracyclo [14.5.2.0^{5,10).0^{19,23}] tricosa-1(22),5(10),6,8,17,19(23), 20-heptaen-4-one] | 19
